According to patent US20220289715A1, “PESTICIDALLY ACTIVE PYRAZINE-AMIDE COMPOUNDS” (priority 2019, published 2022):

Tests used:
Assay type in all cases: in vivo
[1] = system: Euschistus heros (Neotropical Brown Stink Bug); assay: Example B2: Euschistus heros, spray on soybean leaves; details: 120 h, application rate of 200 ppm, N2 nymphs, 5 days after infestation, read-out: control in at least one of the two categories (mortality or growth inhibition)
Method: Example B2: Euschistus heros (Neotropical Brown Stink Bug)
Soybean leaves on agar in 24-well microtiter plates were sprayed with aqueous test solutions prepared from 10,000 ppm DMSO stock solutions. After drying the leaves were infested with N2 nymphs. The samples were assessed for mortality and growth inhibition in comparison to untreated samples 5 days after infestation.
The following compounds gave an effect of at least 80% control in at least one of the two categories (mortality or growth inhibition) at an application rate of 200 ppm: […]

[2] = system: Chilo suppressalis (Striped Rice Stemborer); assay: Example B3: Chilo suppressalis, artificial diet; details: 144 h, application rate of 200 ppm, L2 larvae, 6 days after infestation, read-out: control in at least one of the three categories (mortality, anti-feedant effect, or growth inhibition)
In short: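 Artificial diet was treated with aqueous dilutions made from 10,000 ppm DMSO stocks, dried, and infested with L2 larvae (6-8 per well). After 6 days, mortality, anti-feeding effect and growth inhibition were scored against untreated samples. Control was recorded when any one category exceeded the untreated sample.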

[3] = system: Plutella xylostella (Diamond Back Moth); assay: Example B4: Plutella xylostella, artificial diet, 24-well; details: 192 h, application rate of 200 ppm, eggs, 8 days after infestation, read-out: control in at least one of the two categories (mortality or growth inhibition)
In short: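 Artificial diet in 24-well plates treated with aqueous dilutions of DMSO stocks, dried, then infested with diamondback moth eggs. Mortality and growth inhibition scored against untreated samples 8 days after infestation.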

[4] = system: Myzus persicae (Green Peach Aphid); assay: Example B5: Myzus persicae, intrinsic activity; details: 120 h, test rate of 12 ppm, 5 days after infestation
Source text: Example B5: Myzus persicae (Green Peach Aphid). Intrinsic Activity
Test compounds prepared from 10,000 ppm DMSO stock solutions were applied by pipette into 24-well microtiter plates and mixed with sucrose solution. The plates were closed with a stretched Parafilm. A plastic stencil with 24 holes was placed onto the plate and infested pea seedlings were placed directly on the Parafilm. The infested plate was closed with a gel blotting paper and another plastic stencil and then turned upside down. The samples were assessed for mortality 5 days after infestation.

[5] = system: Spodoptera littoralis (Egyptian Cotton Leaf Worm); assay: Example B6: Spodoptera littoralis, spray on cotton leaf discs; details: foliar, 72 h, application rate of 200 ppm, L1 larvae, 3 days after infestation, read-out: control in at least one of the three categories (mortality, anti-feedant effect, or growth inhibition)
In short: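 Leaf discs on agar sprayed with aqueous solutions made from 10,000 ppm DMSO stocks, then infested after drying with five L1 larvae. Mortality, anti-feeding and growth inhibition scored against untreated samples 3 days after infestation.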

[6] = system: Spodoptera littoralis (Egyptian Cotton Leaf Worm); assay: Example B7: Spodoptera littoralis, uptake by lettuce roots from agar; details: 144 h, test rate of 12.5 ppm, absorbed by lettuce roots, eggs, 6 days after infestation, read-out: control in at least one of the three categories (mortality, anti-feeding, or growth inhibition)
Source text: Example B7: Spodoptera littoralis (Egyptian Cotton Leaf Worm)
Test compounds were applied by pipette from 10,000 ppm DMSO stock solutions into 24-well plates and mixed with agar. Lettuce seeds were placed onto the agar and the multi well plate was closed by another plate which contained also agar. After 7 days the compound was absorbed by the roots and the lettuce grew into the lid plate. The lettuce leaves were then cut off into the lid plate. Spodoptera eggs were pipetted through a plastic stencil onto a humid gel blotting paper and the lid plate was closed with it. The samples were assessed for mortality, anti-feedant effect and growth inhibition in comparison to untreated samples 6 days after infestation.
The following compounds gave an effect of at least 80% control in at least one of the three categories (mortality, anti-feeding, or growth inhibition) at a test rate of 12.5 ppm: […]

[7] = system: Plutella xylostella (Diamondback Moth); assay: Example B9: Plutella xylostella, artificial diet, 96-well; details: 216 h, application rate of 500 ppm, eggs/L1 larvae, 9 days after infestation
In short: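 Test solutions made from 10,000 ppm DMSO stocks were applied to artificial diet in 96-well plates. After drying, ~30 eggs per well were placed on a suspended netted lid so hatching L1 larvae dropped onto the diet. Mortality was scored 9 days after infestation.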

[8] = system: Myzus persicae (Green Peach Aphid); assay: Example B10: Myzus persicae, sucrose solution, 96-well; details: 120 h, application rate of 50 ppm, 5 days after infestation
Source text: Example B10: Myzus persicae (Green Peach Aphid)
Test compounds prepared from 10,000 ppm DMSO stock solutions were applied by a liquid handling robot into 96-well microtiter plates and mixed with a sucrose solution. Parafilm was stretched over the 96-well microtiter plate and a plastic stencil with 96 holes was placed onto the plate. Aphids were sieved into the wells directly onto the Parafilm. The infested plates were closed with a gel blotting card and a second plastic stencil and then turned upside down. The samples were assessed for mortality 5 days after infestation.

[9] = system: Diabrotica balteata (Corn Root Worm); assay: Example B1: Diabrotica balteata, spray on maize sprouts; details: 96 h, application rate of 200 ppm, L2 larvae, 4 days after infestation, read-out: control in at least one of the two categories (mortality or growth inhibition)
In short: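 Maize sprouts on agar were sprayed with aqueous dilutions of DMSO stock solutions, dried, then infested with L2 larvae (6–10 per well). Mortality and growth inhibition were scored against untreated controls 4 days after infestation; test rate 200 ppm.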

[10] = system: Tetranychus urticae (Two-Spotted Spider Mite); assay: Example B8: Tetranychus urticae, feeding/contact activity; details: 192 h
Method: Example B8: Tetranychus urticae (Two-Spotted Spider Mite): Feeding/Contact Activity
Bean leaf discs on agar in 24-well microtiter plates were sprayed with aqueous test solutions prepared from 10,000 ppm DMSO stock solutions. After drying the leaf discs were infested with a mite population of mixed ages. The samples were assessed for mortality on mixed population (mobile stages) 8 days after infestation.

CC(NC(=O)c1cc(OCC(F)F)cc(C(F)(F)F)c1)c1nccnc1-n1nccn1 (centres unmarked) [Compound P12, 3-(2,2-difluoroethoxy)-N-[1-[3-(triazol-2-yl)pyrazin-2-yl]ethyl]-5-(trifluoromethyl)benzamide]
≥ 80%: percent control (mortality or growth inhibition) at 200 ppm [1] | percent control (mortality, anti-feedant effect or growth inhibition) at 200 ppm [2] | percent control (mortality or growth inhibition) at 200 ppm [3] | mortality at 12 ppm [4] | percent control (mortality, anti-feedant effect or growth inhibition) at 200 ppm [5] | percent control (mortality, anti-feeding or growth inhibition) at 12.5 ppm [6] | mortality at 500 ppm [7] | mortality at 50 ppm [8]

CC(NC(=O)c1cc(Cl)cc(Br)c1)c1nccnc1-n1nccn1 (centres unmarked) [Compound P35, 3-bromo-5-chloro-N-[1-[3-(triazol-2-yl)pyrazin-2-yl]ethyl]benzamide]
≥ 80%: percent control (mortality or growth inhibition) at 200 ppm [9] | percent control (mortality, anti-feedant effect or growth inhibition) at 200 ppm [2] | percent control (mortality or growth inhibition) at 200 ppm [3] | percent control (mortality, anti-feedant effect or growth inhibition) at 200 ppm [5] | mortality at 200 ppm [10] | mortality at 500 ppm [7] | mortality at 50 ppm [8]

CC(NC(=O)c1cc(C(F)(F)F)cc(C(C)(C)C#N)c1)c1nccnc1-n1nccn1 (centres unmarked) [Compound P6, 3-(1-cyano-1-methyl-ethyl)-N-[1-[3-(triazol-2-yl)pyrazin-2-yl]ethyl]-5-(trifluoromethyl)benzamide]
≥ 80%: percent control (mortality or growth inhibition) at 200 ppm [9] | percent control (mortality or growth inhibition) at 200 ppm [1] | percent control (mortality, anti-feedant effect or growth inhibition) at 200 ppm [2] | percent control (mortality or growth inhibition) at 200 ppm [3] | mortality at 12 ppm [4] | percent control (mortality, anti-feedant effect or growth inhibition) at 200 ppm [5] | mortality at 500 ppm [7] | mortality at 50 ppm [8]

CC(NC(=O)c1cc(C(F)F)cc(C(F)(F)F)c1)c1nccnc1-n1nccn1 (centres unmarked) [Compound P3, 3-(difluoromethyl)-N-[1-[3-(triazol-2-yl)pyrazin-2-yl]ethyl]-5-(trifluoromethyl)benzamide]
≥ 80%: percent control (mortality or growth inhibition) at 200 ppm [9] | percent control (mortality or growth inhibition) at 200 ppm [1] | percent control (mortality, anti-feedant effect or growth inhibition) at 200 ppm [2] | percent control (mortality or growth inhibition) at 200 ppm [3] | mortality at 12 ppm [4] | percent control (mortality, anti-feedant effect or growth inhibition) at 200 ppm [5] | mortality at 500 ppm [7] | mortality at 50 ppm [8]

C[C@H](NC(=O)c1cc(OC(F)F)cc(C(F)(F)F)c1)c1nccnc1-n1nccn1 [Compound P39, 3-(difluoromethoxy)-N-[(1S)-1-[3-(triazol-2-yl)pyrazin-2-yl]ethyl]-5-(trifluoromethyl)benzamide]
≥ 80%: percent control (mortality or growth inhibition) at 200 ppm [9] | percent control (mortality or growth inhibition) at 200 ppm [1] | percent control (mortality, anti-feedant effect or growth inhibition) at 200 ppm [2] | percent control (mortality or growth inhibition) at 200 ppm [3] | mortality at 12 ppm [4] | percent control (mortality, anti-feedant effect or growth inhibition) at 200 ppm [5] | percent control (mortality, anti-feeding or growth inhibition) at 12.5 ppm [6]
